# According to US20260335344A1, “NOVEL FORMULATIONS AND USES” (DANSTAR FERMENT AG, priority 2022, published 2026):
# Entries after “also recorded” stand apart in the source; their conditions may differ.
# What was measured:
# [1] = system: Acinetobacter baumannii; experiment: Relative quantity of Acinetobacter baumannii by metagenomic (16S rRNA) sequencing after L-arabinose treatment; type: cell-based
# Excerpt: (§1) The objective of the experiments is to evaluate the effect of L-arabinose at different concentrations on a bacterial pool mimicking the skin microbiota by quantification of the bacterial mix using metagenomic sequencing. Five different types of bacteria are obtained from ATCC®: Micrococcus luteus (Cat. No. 4698), Corynebacterium striatum (Cat. No. BAA-1293), Staphylococcus epidermidis (Cat. No. 12228), Acinetobacter baumannii (Cat. No. 19606) and Streptococcus mitis (Cat. No. NCIMB-13770). The bacteria are common skin bacteria, selected to roughly mimic the skin microbiota. The bacteria are grown on specific media, either solid media (Brain Heart Infusion (BHI) Agar from Condalab (Cat. No. 1048.00) or Trypticase Soy (TS) Agar from Condalab (Cat. No. 1068.00)) or on liquid media (either Brain Heart Infusion Broth from Condalab (Cat. No. 1400.00) or Trypticase Soy Broth from Condalab (Cat. No. 1224.00)). The bacteria culture is performed according to the ATCC instructions and adapted to the specific conditions of each bacterium: all bacteria are grown in BHI medium at 37° C. in an aerobic environment shaking at 120 rpm, except for Streptococcus mitis which requires an anaerobic environment, so without shaking and with paraffin oil from Sigma-Aldrich (Cat. No. 185812) above the medium to cut off contact with air.
# (§2) Growth kinetics are carried out for each bacterium to determine their different growth phases and in particular the time needed to reach the exponential phase. Aerobically growing bacteria are plated on solid medium and then a colony is inoculated into 10 mL of liquid medium. An OD at 600 nm is then taken at regular time intervals from T0, the inoculation time, to obtain a growth curve until reaching the stationary phase. Anaerobically growing bacteria are directly inoculated at 500 μL into 9.5 mL of medium.
# (§3) Bacteria are treated during 6 hours with L-arabinose, diluted in culture medium. L-Arabinose is first resuspended in culture medium at a concentration of 5%. The following dilutions are directly realized in culture medium at the following concentrations: 3.5%, 2%, 1% and 0.5%.
# (§4) Each bacterium from the mix is initially grown independently. Once the exponential phase starts, Corynebacterium striatum, Micrococcus luteus and Staphylococcus epidermidis are mixed and grown in the presence or not of the L-arabinose at different concentrations for 6 hours, before reaching the stationary phase. Acinetobacter baumannii and Streptococcus mitis are grown independently with the L-arabinose due to their specific nature (Biosafety Level 2 (BSL-2) bacteria and anaerobic growth for Streptococcus mitis) and pulled in the final mix. Then, the mix is centrifugated and sent to sequencing. Bacterial DNA is isolated, sequenced, and 16S rRNA sequences are matched to taxonomic databases.
# FIG. 2 depicts the relative quantity of Acinetobacter baumannii at different concentrations of L-arabinose. Relative Acinetobacter baumannii abundance is compared in all samples after metagenomic sequencing. Bacteria are treated with L-arabinose at 5 concentrations: 0.5%, 1%, 2%, 3.5% and 5%. Only the OTU identifying the Acinetobacter baumannii genera is represented.
# (§5) The statistical analysis for FIGS. 2-5 is performed using two-tailed unpaired T-test vs NT-NS (*p-value<0.05, **p-value<0.01, ***p-value<0.001).
# [2] = system: Micrococcus luteus; experiment: Relative quantity of Micrococcus luteus by metagenomic (16S rRNA) sequencing after L-arabinose treatment; type: cell-based; details: 6 hours, vs control
# Excerpt: as §1, §2, §3, §4, §5
# FIG. 3 depicts the relative quantity of Micrococcus luteus at different concentrations of L-arabinose. Relative Micrococcus luteus abundance is compared in all samples after metagenomic sequencing. Bacteria are treated with L-arabinose at 5 concentrations: 0.5%, 1%, 2%, 3.5% and 5%. Only the OTU identifying the Micrococcus luteus genera is represented.
# [3] = system: Staphylococcus epidermidis; experiment: Relative quantity of Staphylococcus epidermidis by metagenomic (16S rRNA) sequencing after L-arabinose treatment; type: cell-based; details: 6 hours, vs control
# Excerpt: as §1, with “The bacteria culture is performed according to the ATCC instructions and adapted to the specific conditions of each bacterium: all bacteria are grown in BHI medium at 37° C. in an aerobic environment shaking at 120 rpm, except for Streptococcus mitis which requires an anaerobic environment, so without shaking and with paraffin oil from Sigma-Aldrich (Cat. No. 185812) above the medium to cut off contact with air.” left out
# FIG. 4 depicts the relative quantity of Staphylococcus epidermidis at different concentrations of L-arabinose. […]
# [4] = system: Streptococcus mitis; experiment: Relative quantity of Streptococcus mitis by metagenomic (16S rRNA) sequencing after L-arabinose treatment; type: cell-based; details: for relative quantity of Streptococcus mitis / increase of relative quantity of Streptococcus mitis: vs control; for increase of relative quantity of Streptococcus mitis: statistically increases
# Excerpt: as §1, §2, §3, §4, §5
# FIG. 5 depicts the relative quantity of Streptococcus mitis at different concentrations of L-arabinose. Relative Streptococcus mitis abundance is compared in all samples after metagenomic sequencing. Bacteria are treated with L-arabinose at 5 concentrations: 0.5%, 1%, 2%, 3.5% and 5%. Only the OTU identifying the Streptococcus mitis genera is represented.
# [5] = system: bacterial pool mimicking the skin microbiota; experiment: Relative quantity of bacteria in the skin microbiota mix by metagenomic sequencing; type: cell-based; details: 6 hours
# Excerpt: as §1, §2, §3, §4
# FIG. 6 depicts the relative quantity of bacteria in the skin microbiota mix at different concentrations of L-arabinose. Relative bacteria abundance is detected in all samples after metagenomic sequencing. The bacteria seeded in the mix are Micrococcus luteus, Corynebacterium striatum, Staphylococcus epidermidis, Acinetobacter baumannii and Streptococcus mitis. Bacteria are treated with L-arabinose at 5 concentrations: 0.5%, 1%, 2%, 3.5% and 5%. All the OTUs detected are sorted by genera to be able to differentiate all the bacteria present in every sample.
# [6] = system: intestinal sucrase; details: role: inhibitor; substrate sucrose; dietary supplement use; cited from earlier work
# [7] = 0.5% to 5% L-arabinose, 6 hours
smiles,measurement,setting,value
O=C[C@H](O)[C@@H](O)[C@@H](O)CO [L-arabinose],effect on Acinetobacter baumannii,[1]; 0.5% L-arabinose,promotes Acinetobacter baumannii
same,increase of relative quantity of Acinetobacter baumannii compared to the NT-NS control,"[1]; 0.5% L-arabinose, 6 hours, vs NT-NS control",7%
same,effect on Acinetobacter baumannii (dose dependence),[1]; [7],dose-dependent effect
same,relative quantity of Acinetobacter baumannii,"[1]; 1% L-arabinose, 6 hours, vs NT-NS control",the same than the control
same,relative quantity of Acinetobacter baumannii,"[1]; 2% L-arabinose, 6 hours, vs NT-NS control",the same than the control
same,decrease of relative quantity of Acinetobacter baumannii compared to the NT-NS control,"[1]; 5% L-arabinose, 6 hours, vs NT-NS control, statistically decreases",up to 7%
same,relative quantity of Micrococcus luteus,[2]; 0.5% L-arabinose,inhibit Micrococcus luteus; also recorded: statistically decreases
same,relative quantity of Micrococcus luteus,[2]; 1% L-arabinose,no statistically significant change
same,relative quantity of Micrococcus luteus,[2]; 2% L-arabinose,statistically significant increase
same,relative quantity of Micrococcus luteus,[2]; 3.5% L-arabinose,no statistically significant change
same,relative quantity of Micrococcus luteus,[2]; 5% L-arabinose,no statistically significant change
same,relative quantity of Staphylococcus epidermidis,[3]; 0.5% L-arabinose,tendency to decrease
same,relative quantity of Staphylococcus epidermidis,"[3]; other concentrations (1%, 2%, 3.5%, 5%) of L-arabinose",no statistical differences
same,relative quantity of Streptococcus mitis,"[4]; 0.5% L-arabinose, 6 hours",tends to decrease
same,effect on Streptococcus mitis (dose dependence),[4]; [7],dose-dependent effect
same,relative quantity of Streptococcus mitis,"[4]; 1% L-arabinose, 6 hours",tends to decrease
same,relative quantity of Streptococcus mitis,"[4]; 2% L-arabinose, 6 hours",the same than the control
same,increase of relative quantity of Streptococcus mitis,"[4]; 3.5% L-arabinose, 6 hours",more than 2 times
same,increase of relative quantity of Streptococcus mitis,"[4]; 5% L-arabinose, 6 hours",more than 2 times
same,effect on Streptococcus mitis,[4]; higher concentrations of L-arabinose (3.5% and 5%),promotes Streptococcus mitis
same,relative quantity of bacteria in the skin microbiota mix,[5]; 0.5% L-arabinose,Acinetobacter baumannii is outgrowing the other bacteria
same,homeostasis of the skin microbiota,[5]; 1% L-arabinose,maintaining the homeostasis of skin microbiota; also recorded: safekeeping the homeostasis of the skin microbiota
same,difference of the bacterial mix compared to the NT-NS control,"[5]; 1% or 2% L-arabinose, vs NT-NS control",no significant difference
same,homeostasis of the skin microbiota,[5]; 2% L-arabinose,maintaining the homeostasis of skin microbiota; also recorded: safekeeping the homeostasis of the skin microbiota
same,relative quantity of bacteria in the skin microbiota mix,[5]; 3.5% L-arabinose,Streptococcus mitis is fast growing at the expense of Acinetobacter baumannii
same,relative quantity of bacteria in the skin microbiota mix,[5]; 5% L-arabinose,Streptococcus mitis is fast growing at the expense of Acinetobacter baumannii
same,inhibition of sucrose absorption by inhibiting intestinal sucrase,[6],ability to inhibit absorption of sucrose
